Results reported in US9629830B2, “EphA4 inhibitors as neuroprotective agents” (The Hong Kong University of Science and Technology, priority 2013, dated 2017).
Where two headings read alike, the source gives them in different places.

Tests used:
[1] = test system: APP/PS1 mice; experiment: Amyloid plaque deposition and microglial activation in APP/PS1 mice (immunohistochemistry); type: in vivo, mouse
Description: For immunohistochemical analysis, mice were anesthetised, transcardially perfused with saline followed by 4% paraformaldehyde (pH 7.4), and the brains were removed^66. After overnight postfixation and a series of cryoprotection, the brains were coronally sectioned at a thickness of 20 μm using a cryostat (Microm HM 560, Thermo Scientific). The sections were stained with β-amyloid (1:200) and Iba1 (1:500) antibodies overnight at 4° C., followed by incubation with appropriate fluorescence-conjugated secondary antibodies and mounted in Hydromount (National diagnostics). Images were taken with a Leica DMRA microscope. For 3,3-diaminobenzidine (DAB) staining, the sections were rehydrated and subjected to antigen retrieval. […]
Images from the same experiment were obtained using identical acquisition settings, and images were analyzed with Metamorph software (Meta Image Series 7.5, Universal Imaging Corp.)^24,58. For quantifying the EphA4 and PSD-95 clusters, two dendrite segments from each neuron were analyzed for quantification. […] The basal threshold values for the background of all images in each experiment were measured. […] To measure the density of clusters in dendrites, the images were first thresholded to include the clusters with intensity 2-fold greater than the signal of an adjacent dendrite, and the total number of clusters and dendrite length were measured automatically. […]

[2] = Blood and brain penetration assay after single oral administration; type: in vivo, mouse; details: for half-life: C57Bl/6, mouse, po, 50 mg/kg
Description: Five microliters of sample was injected and eluted by the following program at the flow rate of 0.6 ml/min: 0-4.0 min, 10˜35% ACN; 4.0-4.1 min, 100% ACN; 7.0-7.1 min, 100-10% ACN, 7.1-10 min, 10% ACN. Detection of Rhy was carried out with the positive ionization mode. The ESI conditions were as follows: declustering potential 120 V, entrance potential 10 V, collision cell exit potential 12 V, collision energies 38 V, curtain gas 50 (arbitrary units), collision gas 10 (arbitrary units), ion spray voltage […], source temperature 500° C., ion source gas 1:45 (arbitrary units), ion source gas 2:60 (arbitrary units).
Male C57Bl/6 mice (16-week-old) were obtained from the Hong Kong University of Science and Technology (HKUST) Animal Care Facility and acclimatized in the laboratory a week before the study. […] The procedures in this study were approved by HKUST Animal Ethics Committee and conducted in accordance with the Code of Practice and Use of Animals for Experimental Purpose.
Plasma was obtained by centrifuging the blood at 3,800×g at 4° C. for 10 min. Mouse brains were collected after a 30-min cardiac perfusion with 0.9% saline. Whole mouse brain with the addition of 80 μL 0.9% saline was subjected to homogenization for 10 s (Precellys Minilys) at 4000 rpm with ceramic beads. […] Samples were centrifuged at 12,000×g at 4° C. for 10 min. The supernatants were transferred to a new tube and the remaining samples were subjected to another extraction. The supernatants obtained from the two extractions were pooled and evaporated to dryness. The dried samples were dissolved in 0.3 mL methanol, vortexed for 30 s followed by ultrasonication for 5 min and centrifuged at 17,900×g for 5 min. The supernatant (80 μL) was transferred into vial for UPLC-MS/MS analysis.

[3] = mouse, single oral 50 mg/kg, rounded

## CC[C@H]1CN2CC[C@]3(C(=O)Nc4ccccc43)[C@@H]2C[C@@H]1/C(=C\OC)C(=O)OC [Rhy, methyl (7β,16E,20α)-16-(methoxymethylene)-2-oxocorynoxan-17-oate]
[1]; APP/PS1 mice, 10-week administration of Rhy versus water
  amyloid plaques in cortex and hippocampus: number and total area of amyloid plaques decreased significantly
[1]; cortex of APP/PS1 mice administered with Rhy
  plaque-associated reactive microglia, Iba1 staining: significant reduction of plaque-associated reactive microglia
[2]; 10 min after single oral 50 mg/kg
  detection in plasma and brain: readily detected
[2]; after 3 h of administration, in both plasma and brain
  level of Rhy as percentage of Cmax: 10%
[2]; male, brain, mouse, single oral 50 mg/kg, perfused brain, read-out: t1/2 in brain (converted)
  half-life: 1.79 ± 0.455 h
[2]; male, brain, mouse, single oral 50 mg/kg, rounded, read-out: t1/2 in brain (converted)
  half-life: ~2 h
[2]; male, plasma, mouse, single oral 50 mg/kg, read-out: t1/2 in plasma
  half-life: 1.35 ± 0.201 h
[2]; male, C57Bl/6, plasma, mouse, single oral 50 mg/kg
  Cmax: 583 ± 32.9 ng/mL
[2]; male, C57Bl/6, plasma, mouse, single oral 50 mg/kg, read-out: Tmax in plasma (converted)
  Tmax: 0.514 h
[2]; male, C57Bl/6, mouse, single oral 50 mg/kg, perfused brain, read-out: Tmax in brain (converted)
  Tmax: 0.917 h
[2]; mouse, oral administration
  blood-brain barrier passage: can pass through the blood-brain barrier
[2]; mouse, single oral 50 mg/kg, perfused brain
  Cmax in brain: 442.73±27.38 ng/brain
[2]; [3]
  time at which brain level peaked: ~1 h
  time at which plasma concentration peaked: ~0.5 h
  time at which plasma concentration was reduced by 50%: ~1.5 h
